According to ChEMBL document CHEMBL5329160, “Design, synthesis, and mechanistic study of 2-piperazineone-bearing peptidomimetics as novel HIV capsid modulators” (RSC Med Chem, 2023):

Test system: Human immunodeficiency virus 1
Assay: Antiviral activity against HIV-1 IIIB infected in MT4 cells assessed as protection against virus induced cytotoxicity incubated for 5 days by MTT assay
Format: functional, organism-based
Conditions: Human immunodeficiency virus 1, IIIB, MT4, 120 h
In the case of `COc1ccc(N(C)C(=O)[C@H](Cc2cc(F)cc(F)c2)NC(=O)CN2CCN(C(=O)c3ccc(N)cc3)CC2=O)cc1`, the EC50 is reported as 18 µM.
`COc1ccc(N(C)C(=O)[C@H](Cc2cc(F)cc(F)c2)NC(=O)CN2CCN(C(=O)c3cccc([N+](=O)[O-])c3)CC2=O)cc1` showed an EC50 of 34 µM.
Molecule `COc1ccc(N(C)C(=O)[C@H](Cc2ccccc2)NC(=O)CN2CCN(C(=O)c3ccccc3)CC2=O)cc1` has an EC50 of 28 µM.
`COc1ccc(N(C)C(=O)[C@H](Cc2ccccc2)NC(=O)CN2CCN(C(=O)c3ccccc3C(F)(F)F)CC2=O)cc1` gave an EC50 of 21 µM.
Work on `COc1ccc(N(C)C(=O)[C@H](Cc2ccccc2)NC(=O)CN2CCN(C(=O)c3ccc(C)cc3)CC2=O)cc1` yielded an EC50 of 33 µM.
For `COc1ccc(N(C)C(=O)[C@H](Cc2ccccc2)NC(=O)CN2CCN(C(=O)c3cccc(F)c3)CC2=O)cc1`, the EC50 was 23 µM.
For `COc1ccc(N(C)C(=O)[C@H](Cc2ccccc2)NC(=O)CN2CCN(C(=O)c3ccccc3[N+](=O)[O-])CC2=O)cc1`, the EC50 was 22 µM.
Work on `COc1ccc(N(C)C(=O)[C@H](Cc2cc(F)cc(F)c2)NC(=O)CN2CCN(C(=O)c3ccccc3F)CC2=O)cc1` yielded an EC50 of 22 µM.
For `COc1ccc(N(C)C(=O)[C@H](Cc2cc(F)cc(F)c2)NC(=O)CN2CCN(C(=O)c3ccc(Cl)cc3)CC2=O)cc1`, the EC50 was greater than 19 µM.

Test system: Human immunodeficiency virus 2
Assay: Antiviral activity against HIV-2 ROD infected in MT4 cells assessed as protection against virus induced cytotoxicity and measured after 5 days by MTT spectrophotometric assay
Format: functional, organism-based
Conditions: Human immunodeficiency virus 2, ROD, MT4, 120 h
Work on `COc1ccc(N(C)C(=O)[C@H](Cc2cc(F)cc(F)c2)NC(=O)CN2CCN(C(=O)c3ccc(N)cc3)CC2=O)cc1` yielded an EC50 of 32 µM.
In the case of `COc1ccc(N(C)C(=O)[C@H](Cc2cc(F)cc(F)c2)NC(=O)CN2CCN(C(=O)c3cccc([N+](=O)[O-])c3)CC2=O)cc1`, the EC50 is reported as greater than 47 µM.
Molecule `COc1ccc(N(C)C(=O)[C@H](Cc2ccccc2)NC(=O)CN2CCN(C(=O)c3ccccc3)CC2=O)cc1` has an EC50 of 3.6 µM.
Molecule `COc1ccc(N(C)C(=O)[C@H](Cc2ccccc2)NC(=O)CN2CCN(C(=O)c3ccccc3C(F)(F)F)CC2=O)cc1` has an EC50 of 2.9 µM.
For `COc1ccc(N(C)C(=O)[C@H](Cc2ccccc2)NC(=O)CN2CCN(C(=O)c3ccc(C)cc3)CC2=O)cc1`, the EC50 was 9.2 µM.
Work on `COc1ccc(N(C)C(=O)[C@H](Cc2ccccc2)NC(=O)CN2CCN(C(=O)c3cccc(F)c3)CC2=O)cc1` yielded an EC50 of 4.6 µM.
With `COc1ccc(N(C)C(=O)[C@H](Cc2ccccc2)NC(=O)CN2CCN(C(=O)c3ccccc3[N+](=O)[O-])CC2=O)cc1` the EC50 was 2.5 µM.
Molecule `COc1ccc(N(C)C(=O)[C@H](Cc2cc(F)cc(F)c2)NC(=O)CN2CCN(C(=O)c3ccccc3F)CC2=O)cc1` has an EC50 of 5.3 µM.
With `COc1ccc(N(C)C(=O)[C@H](Cc2cc(F)cc(F)c2)NC(=O)CN2CCN(C(=O)c3ccc(Cl)cc3)CC2=O)cc1` the EC50 was greater than 19 µM.

Test system: not listed separately
Assay: Cytotoxicity against human MT4 cells assessed as reduction in cell viability after 5 days by MTT assay
Format: toxicity, cell-based
Conditions: time 5 day
`COc1ccc(N(C)C(=O)[C@H](Cc2cc(F)cc(F)c2)NC(=O)CN2CCN(C(=O)c3ccc(N)cc3)CC2=O)cc1` showed a CC50 at 120 h greater than 220 µM.
For `COc1ccc(N(C)C(=O)[C@H](Cc2cc(F)cc(F)c2)NC(=O)CN2CCN(C(=O)c3cccc([N+](=O)[O-])c3)CC2=O)cc1`, the CC50 at 120 h was 47 µM.
`COc1ccc(N(C)C(=O)[C@H](Cc2ccccc2)NC(=O)CN2CCN(C(=O)c3ccccc3)CC2=O)cc1` gave a CC50 at 120 h greater than 240 µM.
`COc1ccc(N(C)C(=O)[C@H](Cc2ccccc2)NC(=O)CN2CCN(C(=O)c3ccccc3C(F)(F)F)CC2=O)cc1` gave a CC50 at 120 h of 130 µM.
In the case of `COc1ccc(N(C)C(=O)[C@H](Cc2ccccc2)NC(=O)CN2CCN(C(=O)c3ccc(C)cc3)CC2=O)cc1`, the CC50 at 120 h is reported as 64 µM.
`COc1ccc(N(C)C(=O)[C@H](Cc2ccccc2)NC(=O)CN2CCN(C(=O)c3cccc(F)c3)CC2=O)cc1` gave a CC50 at 120 h greater than 230 µM.
For `COc1ccc(N(C)C(=O)[C@H](Cc2ccccc2)NC(=O)CN2CCN(C(=O)c3ccccc3[N+](=O)[O-])CC2=O)cc1`, the CC50 at 120 h was 180 µM.
In the case of `COc1ccc(N(C)C(=O)[C@H](Cc2cc(F)cc(F)c2)NC(=O)CN2CCN(C(=O)c3ccccc3F)CC2=O)cc1`, the CC50 at 120 h is reported as 140 µM.
Work on `COc1ccc(N(C)C(=O)[C@H](Cc2cc(F)cc(F)c2)NC(=O)CN2CCN(C(=O)c3ccc(Cl)cc3)CC2=O)cc1` yielded a CC50 at 120 h of 19 µM.

Test system: not listed separately
Assay: Selectivity index, ratio of CC50 for human MT4 cells to EC50 for HIV-1 IIIB infected in human MT4 cells
Format: toxicity, cell-based
Conditions: read-out: Ratio CC50/EC50
Molecule `COc1ccc(N(C)C(=O)[C@H](Cc2cc(F)cc(F)c2)NC(=O)CN2CCN(C(=O)c3ccc(N)cc3)CC2=O)cc1` has a selectivity ratio greater than 12.
`COc1ccc(N(C)C(=O)[C@H](Cc2cc(F)cc(F)c2)NC(=O)CN2CCN(C(=O)c3cccc([N+](=O)[O-])c3)CC2=O)cc1` showed a selectivity ratio of 1.4.
Molecule `COc1ccc(N(C)C(=O)[C@H](Cc2ccccc2)NC(=O)CN2CCN(C(=O)c3ccccc3)CC2=O)cc1` has a selectivity ratio greater than 8.6.
In the case of `COc1ccc(N(C)C(=O)[C@H](Cc2ccccc2)NC(=O)CN2CCN(C(=O)c3ccccc3C(F)(F)F)CC2=O)cc1`, the selectivity ratio is reported as 6.2.
`COc1ccc(N(C)C(=O)[C@H](Cc2ccccc2)NC(=O)CN2CCN(C(=O)c3ccc(C)cc3)CC2=O)cc1` showed a selectivity ratio of 1.9.
`COc1ccc(N(C)C(=O)[C@H](Cc2ccccc2)NC(=O)CN2CCN(C(=O)c3cccc(F)c3)CC2=O)cc1` showed a selectivity ratio greater than 10.
For `COc1ccc(N(C)C(=O)[C@H](Cc2ccccc2)NC(=O)CN2CCN(C(=O)c3ccccc3[N+](=O)[O-])CC2=O)cc1`, the selectivity ratio was 8.2.
`COc1ccc(N(C)C(=O)[C@H](Cc2cc(F)cc(F)c2)NC(=O)CN2CCN(C(=O)c3ccccc3F)CC2=O)cc1` showed a selectivity ratio of 6.4.
`COc1ccc(N(C)C(=O)[C@H](Cc2cc(F)cc(F)c2)NC(=O)CN2CCN(C(=O)c3ccc(Cl)cc3)CC2=O)cc1` showed a selectivity ratio of less than 1.

Test system: not listed separately
Assay: Selectivity index, ratio of CC50 for human MT4 cells to EC50 for HIV-2 ROD infected in human MT4 cells
Format: toxicity, cell-based
Conditions: read-out: Ratio CC50/EC50
In the case of `COc1ccc(N(C)C(=O)[C@H](Cc2cc(F)cc(F)c2)NC(=O)CN2CCN(C(=O)c3ccc(N)cc3)CC2=O)cc1`, the selectivity ratio is reported as greater than 6.9.
With `COc1ccc(N(C)C(=O)[C@H](Cc2cc(F)cc(F)c2)NC(=O)CN2CCN(C(=O)c3cccc([N+](=O)[O-])c3)CC2=O)cc1` the selectivity ratio was less than 1.
Molecule `COc1ccc(N(C)C(=O)[C@H](Cc2ccccc2)NC(=O)CN2CCN(C(=O)c3ccccc3)CC2=O)cc1` has a selectivity ratio greater than 67.
In the case of `COc1ccc(N(C)C(=O)[C@H](Cc2ccccc2)NC(=O)CN2CCN(C(=O)c3ccccc3C(F)(F)F)CC2=O)cc1`, the selectivity ratio is reported as 45.
Molecule `COc1ccc(N(C)C(=O)[C@H](Cc2ccccc2)NC(=O)CN2CCN(C(=O)c3ccc(C)cc3)CC2=O)cc1` has a selectivity ratio of 7.
Work on `COc1ccc(N(C)C(=O)[C@H](Cc2ccccc2)NC(=O)CN2CCN(C(=O)c3cccc(F)c3)CC2=O)cc1` yielded a selectivity ratio greater than 50.
Work on `COc1ccc(N(C)C(=O)[C@H](Cc2ccccc2)NC(=O)CN2CCN(C(=O)c3ccccc3[N+](=O)[O-])CC2=O)cc1` yielded a selectivity ratio of 72.
With `COc1ccc(N(C)C(=O)[C@H](Cc2cc(F)cc(F)c2)NC(=O)CN2CCN(C(=O)c3ccccc3F)CC2=O)cc1` the selectivity ratio was 26.
`COc1ccc(N(C)C(=O)[C@H](Cc2cc(F)cc(F)c2)NC(=O)CN2CCN(C(=O)c3ccc(Cl)cc3)CC2=O)cc1` gave a selectivity ratio of less than 1.
